Results published in patent US4200760A, “Imidazolylalkylthioalkylamino-ethylene derivatives” (Bristol-Myers Company, priority 1978, dated 1980).

Key:
gastric secretion = conditions: animals and man; cited from earlier work
H2 receptors = conditions: cited from earlier work
agranulocytosis = conditions: in vivo; cited from earlier work
histamine H2-receptors [1] = target: T1, histamine H2-receptors (Cavia porcellus, UniProt P47747); assay: Histamine H2-receptor antagonism, isolated guinea pig right atria assay; parameters: species or system guinea pig (male Hartley strain); conditions: for Histamine ED50 after test compound / Concentration-Response Curve Displacement Factor: test compound 3 × 10^-5 M; for Histamine ED50 after test compound: 30 minute incubation; for Concentration-Response Curve Displacement Factor: shift of histamine curve to the right
T1 construct: The spontaneously beating right atrium was dissected free from other tissues; from tissue; host or cells: isolated spontaneously beating right atrium, male Hartley guinea pig
Method: Subsequent investigations by Hughes and Coret, Proc. Soc. […] Black et al., Agents and Actions, 3, 133 (1973) and Brimblecombe et al., Fed. […] The present comparative studies were carried out using a modification of the procedure reported by Reinhardt et al., Agents and Actions, 4, 217 (1974).
Male Hartley strain guinea pigs (350-450 gm.) were sacrificed by a blow on the head. The heart was excised and placed in a Petri dish of oxygenated (95% O2, 5% CO2) modified Krebs solution (g./liter: NaCl 6.6, KCl 0.35, MgSO4.7 H2 O 0.295, KH2 PO4 0.162, CaCl2 0.238, NaHCO3 2.1 and dextrose 2.09). The spontaneously beating right atrium was dissected free from other tissues and a silk thread (4-O) attached to each end. The atrium was suspended in a 20 ml. muscle chamber containing oxygenated modified Krebs solution maintained at 32° C. Atrial contractions were recorded isometrically by means of a Grass FT 0.03 force displacement transducer and recordings of contractile force and rate were made with a Beckman RP Dynograph.
A resting tension of 1 g. was applied to the atrium and it was allowed to equilibrate for 1 hour.
Concentration-response curve displacement factors were calculated as follows: [formula] […] [formula]

gastric acid output [2] = assay: Gastric antisecretory activity in the two hour pylorus ligated (Shay) rat; format: in vivo, rat (male Long Evans); conditions: for ED50: 2 h, read-out: ED50 (acid output); for Potency Ratio: relative to cimetidine
Text: The pyloric ligation procedure in the rat was designed by Shay et al., Gastroenterology, 5, 53 (1945) for the study of perforating gastric ulcers; however, as the method became known, it was also employed as a means of studying rat gastric secretion, Shay et al., Gastroenterology, 26, 906 (1954), Brodie, D. A., Am. J. Dig. Dis., 11, 231 (1966). A modification of this procedure is presently used to evaluate compounds for gastric antisecretory activity.
Male Long Evans rats, 280-300 gm., are used. The animals are placed in individual cages and fasted for 24 hours with free access to water. Under ether anesthesia, the stomach is reached through a midline incision, and a cotton-thread ligature is placed around the pylorus. […] All compounds are solubilized with one equivalent of HCl and brought to the proper volume with water. The animals are returned to their cages from which the water bottles have been removed and two hours later are sacrificed with ether. The stomach is removed and the two hour gastric collection is drained into a graduated test tube for volume determination. Titratable acidity is measured by titrating a one ml. sample to pH 7.0 with 0.02 N NaOH, using an Autoburet and an electrometric pH meter (Radiometer). Titratable acid output is calculated in microequivalents by multiplying the volume in milliliters by the acid concentration in milliequivalents per liter. The percent inhibition of acid output is calculated as follows: [formula]

gastric acid output [3] = assay: Gastric antisecretory activity in the gastric fistula dog (histamine-induced gastric acid output); format: in vivo, dog (beagle); conditions: for ED50: Canis lupus familiaris, read-out: ED50 (acid output); for Potency Ratio: relative to cimetidine
Method: Thomas type [Thomas, J. E., Proc. Soc. exp. Biol. Med., 46, 260 (1941)] stainless steel cannulae are inserted into the stomachs of beagle dogs (10-12 kg.) just orad to the pyloric gland area near the greater curvature to provide a chronic gastric fistula. Animals are allowed to recover for at least two months before any testing is done. Dogs are fasted overnight (~18 hours) with water ad lib prior to each experiment. The dogs are placed in a sling and an eight inch inside needle catheter (C. R. Baird, Inc.) with a two inch 17 gauge needle is inserted into a leg vein for purposes of drug administration. Gastric secretions are collected every 15 minutes by gravity drainage from the opened cannula. […] A modification of the procedure described by Grossman and Konturek, Gastroenterology, 66, 517 (1974) was followed. […] Each 15 minute sample of gastric juice is measured to the nearest 0.5 ml. and titratable acidity against 0.02 N NaOH (endpoint pH 7.0) is measured with an Autoburet and pH meter (radiometer).The percent inhibition of acid output is calculated as described in the pylorus ligated rat procedure.

[4] = cited from earlier work
peptic ulcer disease = conditions: clinical evaluation, Gray et al.; cited from earlier work
histamine H2-receptors [5] = target: T1, histamine H2-receptors; conditions: Black et al., isolated guinea pig right atria; cited from earlier work
[6] = ip, two hour pylorus ligated rat
[7] = compared with cimetidine and Compound XII
[8] = iv, histamine-stimulated gastric fistula dog
[9] = 1.50 μMole/kg iv (BL-5949: one dog at this dose)

T1 sequence (P47747 whole entry): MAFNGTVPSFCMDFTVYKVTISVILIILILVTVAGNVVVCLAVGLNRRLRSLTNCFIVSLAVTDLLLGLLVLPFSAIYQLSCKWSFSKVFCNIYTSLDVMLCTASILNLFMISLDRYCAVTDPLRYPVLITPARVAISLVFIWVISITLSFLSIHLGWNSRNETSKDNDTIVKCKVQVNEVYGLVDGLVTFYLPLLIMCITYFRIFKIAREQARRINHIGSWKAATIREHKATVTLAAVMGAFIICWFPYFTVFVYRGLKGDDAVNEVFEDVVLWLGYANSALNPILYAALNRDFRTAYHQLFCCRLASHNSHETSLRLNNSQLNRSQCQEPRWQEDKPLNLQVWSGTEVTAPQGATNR

Compound | Inhibition of gastric secretion / oral activity (in words) (gastric secretion) | H2 antagonist activity (in words) (H2 receptors) | Toxicity (agranulocytosis) (agranulocytosis) | Percent Inhibition Acid Output (gastric acid output [2]; 2.5 μMole/kg ip) | Percent Inhibition Acid Output (gastric acid output [2]; 5 μMole/kg ip) | Percent Inhibition Acid Output (gastric acid output [2]; 20 μMole/kg ip) | ED50 (gastric acid output [2]; [6]) | Potency Ratio (gastric acid output [2]; ip) | Percent Inhibition Acid Output (gastric acid output [3]; 0.375 μMole/kg iv) | Percent Inhibition Acid Output (gastric acid output [3]; 0.75 μMole/kg iv) | ED50 (gastric acid output [3]; [8]) | Potency Ratio (gastric acid output [3]; iv) | Histamine ED50 after test compound (histamine H2-receptors [1]) | Concentration-Response Curve Displacement Factor (histamine H2-receptors [1]) | Percent Inhibition Acid Output (gastric acid output [2]; 10 μMole/kg ip) | Percent Inhibition Acid Output (gastric acid output [2]; 40 μMole/kg ip) | Percent Inhibition Acid Output (gastric acid output [3]; [9]) | further results
CNC(=S)NCCSCc1[nH]cnc1C [Metiamide] | orally active in man | more potent than burimamide | toxicity (agranulocytosis) | – | – | – | – | – | – | – | – | – | – | – | – | – | – | –
NCCc1c[nH]cn1 [Histamine] | – | – | – | – | – | – | – | – | – | – | – | – | – | – | – | – | – | Histamine ED50 (control, before test compound) (histamine H2-receptors [1]; control of Compound XII series, N=2, contractile rate): 0.24 µg/mL
C#CCNC(=C[N+](=O)[O-])NCCSCc1[nH]cnc1C [BL-5949, 1-Nitro-2-(2-propynylamino)-2-{2-[(4-methyl-1H-imidazol-5-yl)methylthio]ethylamino}ethylene] | – | – | – | 33% | 51% | 87% | 4.62 µmol/kg | 2.26 | 62% | 68% | 0.24 µmol/kg | 5.56 | 14.05 µg/mL | 46.83 | – | – | – | Potency as inhibitor of gastric secretion in rats (in words) (gastric acid output [2]; [7]): more potent than either cimetidine or Compound XII; times more potent than Compound XII (gastric acid output [2]; relative to Compound XII, ip): 3.7 times; Percent Inhibition Acid Output (gastric acid output [3]; 0.0938 μMole/kg iv): 34%; Percent Inhibition Acid Output (gastric acid output [3]; 0.1875 μMole/kg iv): 46%; Potency as inhibitor of gastric secretion in dogs (in words) (gastric acid output [3]; [7]): more potent than either cimetidine or Compound XII; times more potent than Compound XII (gastric acid output [3]; relative to Compound XII, iv): 3.8 times; Potency as histamine H2-receptor antagonist in isolated guinea pig atria (in words) (histamine H2-receptors [1]; [7]): more potent than either cimetidine or Compound XII; times as active as Compound XII (histamine H2-receptors [1]; relative to Compound XII): about 2.7 times
CNC(=NC#N)NCCSCc1[nH]cnc1C [Cimetidine] | – | as effective an H2 antagonist as metiamide | without producing agranulocytosis | 9% | 53% | 57% | – | – | – | 37% | – | – | 4.80 µg/mL | 25.26 | 41% | 72% | 53% | half-life ([4]; in vivo): relatively short; ED50 (gastric acid output [2]; Rattus norvegicus, ip): 10.4 µmol/kg; Percent Inhibition Acid Output (gastric acid output [3]; 3.0 μMole/kg iv): 73%; ED50 (gastric acid output [3]; iv): 1.33 µmol/kg; Efficacy in the treatment of peptic ulcer disease (in words) (peptic ulcer disease): effective therapeutic agent in the treatment of peptic ulcer disease
CNC(=S)NCCCCc1cnc[nH]1 [Burimamide] | inhibits gastric secretion in animals and man | – | – | – | – | – | – | – | – | – | – | – | – | – | – | – | – | oral absorption ([4]; oral): poor; Type of antagonism at histamine H2-receptors (in words) (histamine H2-receptors [5]): competitive antagonist of these receptors
CNC(=C[N+](=O)[O-])NCCSCc1[nH]cnc1C [Compound XII] | – | – | – | – | – | 64% | 17.2 µmol/kg | 0.61 | 22% | 42% | 0.9 µmol/kg | 1.47 | 4.30 µg/mL | 17.92 | 25% | 86% | 73% | –
